A word on the IC50: it is the concentration at which inhibition is half-maximal. A word on the EC50: it is the concentration needed to bring the measured effect to its halfway point. As usually defined, the CC50 is the concentration that lowers cell viability or growth by half. For orientation: melting point means the temperature, or range, at which the solid turns liquid.

Read-outs that look alike come from different tables or passages of the source.

For one data set, the target named is HCV NS5B polymerase. Further details: method as in PMID 14695815, PMID 15481971, PMID 15149686. As to conditions: HCV NS5B polymerase inhibition, Figures 1 and 2; cited from earlier work.
In data set [1] the test system is HCV infectious virus J399EM. Further details: method as in PMID 22445328. As to conditions: cited from earlier work; for inhibition against HCV: at 50 μM, previous results.
Data set [2] concerns HCV infectious virus J399EM. The data set can be described thus: Anti-HCV assay in authentic HCV infection/replication system (J399EM EGFP reporter virus) in Huh7.5.1 cells. In kind it is cell-based, hepatitis C virus (JFH1-derived, genotype 2a). The settings on record: for EC50: Hepatitis C virus, Huh-7.5.1, 72 h; for SI (selectivity index): ratio of CC50 to EC50, Huh7.5.1 cells. The method, then:
(§1) The inhibition of HCV by all synthesized quercetin derivatives was evaluated following a previously reported procedure. All newly synthesized compounds were tested in authentic HCV infection/replication system in the human hepatoma cell lines Huh7.5.1 using mycophenolic acid (MPA) as control compound. The cytotoxicity effect of the test compounds was also evaluated in the same cell line by MTT method. Antiviral effect and cytotoxicity effect were summarized as EC50 and CC50 respectively, as well as the selective index (SI) which is the ratio of CC50 to EC50. The stability of quercetin-3-O-ester compounds were also tested in the same buffer as the antiviral activity assay at 37 °C and the hydrolysate was measured by HPLC.
The biological assays were performed following a previously reported procedure. The Huh7.5.1 cell line and the HCV infectious virus J399EM were kindly provided by Xin-Wen Chen, Wuhan Institute of Virology, Chinese Academy of Sciences. Huh7.5.1 cells were cultured in Dulbecco’s modified Eagle’s medium (DMEM) containing 10% (v/v) fetal bovine serum, 0.5 mg/mL G418, 100 IU/mL penicillin, and […].
J399EM is an infectious HCV virus derived from the JFH1 virus (genotype 2a) by insertion of enhanced green fluorescent protein (EGFP) into the HCV NS5A region. The establishment of the infectious J399EM HCV virus has been described previously. J399EM was propagated in Huh7.5.1 cells. Briefly, Huh7.5.1 cells were infected with J399EM at MOI = 0.1 and cultured for 4 days. Culture supernatant was collected and filtered through a 0.45 μm membrane and stored at −80 °C as virus stock. Virus titer was tested in Huh7.5.1 cells. Stocks were serially diluted, and the foci forming units (FFU) were determined as the number of fluorescent colonies formed in infected Huh7.5.1.
All the compounds were first dissolved in DMSO at 50 mM, and then diluted to various concentrations (50 μM, 25 μM, 12.5 μM, 6.3 μM and 3.1 μM). Approximately 1 × 10^4 Huh7.5.1 cells per well were plated in an opaque 96-well tissue culture plate (Costar 3904). The next day, the medium was replaced by J399EM virus at an MOI of 0.3. Four hours later, the virus inoculum was removed and medium containing different concentrations of compounds was added. After an additional 72 h of incubation, the culture medium was removed and the EGFP autofluorescence was measured by using a […] with excitation at 488 nm and emission at 516 nm. Compounds and controls were performed in duplicate and each experiment repeated independently at least twice.

Data set [3] in a line: Cell viability / cytotoxicity by MTT method. In kind it is cell-based. As to conditions: human. The method, then:
as §1
After the EGFP signal was read, cell viability was measured in the same plate by the MTT [3-(4,5-dimethylthiazol-2-yl)-2,5-diphenyltetrazolium bromide; Sigma-Aldrich, St. Louis, MO, USA] method. Briefly, MTT (1 mg/mL) was dissolved in PBS. Cell culture supernatants were removed and replaced with MTT and further cultured for 4 h; cells were then lysed with 10% sodium dodecyl sulfate (SDS), 50% N,N-dimethylformamide, pH 7.2. OD570 values were read. The percentage of cell death was calculated against the control well without compounds.
(Tetrazolium assays rely on reduction of a dye to a coloured formazan, in cell work by metabolically active cells.)

Another data set concerns HCV RdRp. The arrangement: method as in PMID 25053847. As to conditions: at the concentration of 20 μM in an enzyme assay; cited from earlier work.

For the molecule meconic acid [Compound 1c], on HCV NS5B polymerase, the IC50 is 2.3 µM.
`O=c1c(O)c(-c2ccc(O)cc2)oc2cc(O)cc(O)c12` [kaempferol]: in data set [1], the “inhibition against HCV” value is on record as 51.9%.
On to `N#Cc1c(Cl)cc(Cl)cc1COc1cccc(C(=O)/C=C(\O)C(=O)O)c1` [Compound 1b], for which, at HCV NS5B polymerase, the IC50 was 0.045 µM.
Take `O=C(O)/C(O)=C/C(=O)c1ccccc1` [Compound 1a]: the concentration for half-maximal inhibition (IC50) on HCV NS5B polymerase is 5.7 µM.
Turning to `COc1cc(-c2oc3cc(O)cc(O)c3c(=O)c2O)ccc1O` [isorhamnetin], the “inhibition against HCV” value in data set [1] is on record as 47.3%.
The molecule `O=c1c(O)c(-c2ccc(O)c(O)c2)oc2cc(OCc3ccccc3F)cc(O)c12` [Compound 3b, 2-(3,4-Dihydroxyphenyl)-7-((2-fluorobenzyl)oxy)-3,5-dihydroxy-4H-chromen-4-one] gave a melting point of 254 to 255 °C. In data set [2], the EC50 is 5 ± 0.1 µM and the “SI (selectivity index)” value is listed as 3.1. The molecule further gave a CC50 in data set [3] of 15.4 ± 0.1 µM.
The molecule `Cc1ccc(COc2cc(O)c3c(=O)c(O)c(-c4ccc(O)c(O)c4)oc3c2)cc1` [Compound 3q, 2-(3,4-Dihydroxyphenyl)-3,5-dihydroxy-7-((4-methylbenzyl)oxy)-4H-chromen-4-one] gave a melting point of 261 to 264 °C. Also, in data set [2], the concentration for a half-maximal effect (EC50) turned out to be 6.7 ± 1.4 µM and the “SI (selectivity index)” value worked out at 2.4. The molecule also yielded a 50% cytotoxic concentration (CC50) in data set [3] of 15.9 ± 1 µM.
In turn, `O=C(Oc1c(-c2ccc(O)c(O)c2)oc2cc(O)cc(O)c2c1=O)c1ccc(F)cc1` [Compound 4k, 2-(3,4-Dihydroxyphenyl)-5,7-dihydroxy-4-oxo-4H-chromen-3-yl 4-fluorobenzoate] returned a melting point of 203 to 205 °C. In addition, in data set [2], the EC50 came out at 9.7 ± 3.1 µM and the “SI (selectivity index)” value is recorded as 3.6. Besides, half-maximal cytotoxicity in data set [3] (CC50) was put at 35 ± 2.4 µM.
Take `O=c1c(O)c(-c2ccc(O)c(O)c2)oc2cc(OCc3ccccc3Cl)cc(O)c12` [Compound 3c, 7-((2-Chlorobenzyl)oxy)-2-(3,4-dihydroxyphenyl)-3,5-dihydroxy-4H-chromen-4-one]: the melting point fell in the range of 253 to 254 °C. In data set [2], the EC50 is 4.8 ± 0.1 µM and the “SI (selectivity index)” value was 7.7. For the same molecule, in data set [3], the CC50 is 36.7 ± 0.7 µM.
As for `Nc1ccc(C(=O)Oc2c(-c3ccc(O)c(O)c3)oc3cc(O)cc(O)c3c2=O)cc1` [Compound 4l, 2-(3,4-Dihydroxyphenyl)-5,7-dihydroxy-4-oxo-4H-chromen-3-yl 4-aminobenzoate], the melting point fell in the range of 233 to 234 °C. Besides, in data set [2], it took 23.8 ± 0.8 µM to reach a half-maximal effect (EC50) and the “SI (selectivity index)” value is on record as >2.1. Moreover, in data set [3], the CC50 is > 50 µM.
`O=c1c(O)c(-c2ccc(O)c(O)c2)oc2cc(OCc3ccccc3)cc(O)c12` [Compound 3a, 7-(Benzyloxy)-2-(3,4-dihydroxyphenyl)-3,5-dihydroxy-4H-chromen-4-one] returned a melting point of 255 to 257 °C. In data set [2], the EC50 came to 8.7 ± 0.2 µM and the “SI (selectivity index)” value is reported as >5.8. Besides, in data set [3], the cytotoxic concentration (CC50) was > 50 µM.
In the same order, the values of `O=C(Oc1c(-c2ccc(O)c(O)c2)oc2cc(O)cc(O)c2c1=O)c1ccccc1F` [Compound 4b, 2-(3,4-Dihydroxyphenyl)-5,7-dihydroxy-4-oxo-4H-chromen-3-yl 2-fluorobenzoate] are 186 to 187 °C, 12.9 ± 3.2 µM, >3.9 and > 50 µM.
On to `O=c1c(O)c(-c2ccc(O)c(O)c2)oc2cc(O)cc(O)c12` [Compound 2, quercetin], for which the “SI (selectivity index)” value in data set [2] was >2.5. Besides, in data set [3] (Huh7.5.1 cells, MTT, concentration required to reduce cell proliferation by 50%, average of duplicate determinations, read-out: CC50), the CC50 is > 50 µM. Further, the EC50 in data set [1] (anti-HCV activity of quercetin, earlier work of the authors) was 19.8 µM. Also, in the data set with HCV RdRp, the “inhibition of HCV RdRp” value was 83.7%.
With `O=C(O)c1nc(-c2cccs2)nc(O)c1O` [Compound 1d, dihydroxypyrimidine carboxylic acid], at HCV NS5B polymerase, the IC50 was 2.6 µM.
On to `O=c1c(O)c(-c2ccc(O)c(O)c2)oc2cc(OCc3ccccc3Br)cc(O)c12` [Compound 3d, 7-((2-Bromobenzyl)oxy)-2-(3,4-dihydroxyphenyl)-3,5-dihydroxy-4H-chromen-4-one], for which the melting point lay in the range of 248 to 249 °C. In addition, in data set [2], it took 5.5 ± 0.2 µM to reach a half-maximal effect (EC50) and the “SI (selectivity index)” value worked out at 6.8. Also, in data set [3], the midpoint of cytotoxicity, the CC50, lay at 37.4 ± 0.8 µM.

The values are drawn from publication PMC6272327, “Discovery of Metal Ions Chelator Quercetin Derivatives with Potent Anti-HCV Activities” (Molecules, 2015).
